One data set is described as follows: clinical. As to conditions: human, plasma, oral.
For data set [1] the following is noted: cohorts 1-4.
Excerpt: (§1) Healthy subjects receive a single dose of drug at the highest dose studied in the liver-impaired subjects in order to make relative comparison to the PK aspects of Nalbuphine extended release (ER).
(§2) Cohort 1 consists of subjects with impaired hepatic function divided into three groups with some subjects in each of the mild Child-Pugh A category (Group 1), the moderate Child-Pugh B category (Group 2), and the severe Child-Pugh category C (Group 3). Cohort 2-4 consists of subjects with impaired hepatic function divided into two groups with some subjects in each of the mild Child-Pugh A category (Group 1), and the moderate Child-Pugh B category (Group 2).
(§3) Dosing: Subjects receive a single ascending dose, under fasting condition, at the following dose levels:
(§4) Each of the cohorts is dosed sequentially starting with the lowest dose. Subjects with mild or moderate hepatic impairment enrolled in Cohort 1 are optionally enrolled in Cohorts 2, 3, and 4. For each dose cohort, enrollment of subjects with mild or moderate hepatic impairment is done in parallel. An evaluation of safety and tolerability of the combined mild and moderate hepatic impairment subject data is done at each dose level before proceeding to the next dose level.
(§5) Blood: Blood from the patients of each cohort is collected in K2EDTA tubes. The plasma fractions are separated by centrifugation and stored frozen until analysis. Blood samples are collected at the following time points: 0 h (prior to the dose), 1.5, 3, 5, 7, 9, 12, 24, 36, 48, and 72 h after the dose.

The source of these data is patent US12274696B2, “Methods of administering nalbuphine” (Trevi Therapeutics, Inc., priority 2020, dated 2025).

Excerpt for clinical: as §1, §2, §3, §4, §5

Regarding `Cl.Oc1ccc2c3c1OC1[C@@H](O)CC[C@@]4(O)[C@@H](C2)N(CC2CCC2)CC[C@]314` (stereo partly drawn) [nalbuphine, 17-(cyclobutylmethyl)-4,5α-epoxymorphinian-3, 6α, 14-triol, hydrochloride], the area under the curve AUC(0-t) in the data set “clinical” (27 mg, AUC0-t Mean, 27 mg single dose, Cohort 1, mild hepatic impairment (Child Pugh A)) was found to be 48.9 ng·h/mL; in “clinical” (27 mg, AUC0-t Mean, 27 mg single dose, Cohort 1, moderate hepatic impairment (Child Pugh B)), 244 ng·h/mL; in “clinical” (27 mg, AUC0-t Mean, 27 mg single dose, Cohort 1, severe hepatic impairment (Child Pugh C)), 489 ng·h/mL; in “clinical” (162 mg, mean AUC0-t, 162 mg single dose, Cohort 4, mild hepatic impairment (Child Pugh A)) it was 375 ng·h/mL; in “clinical” (162 mg, mean AUC0-t, 162 mg single dose, Cohort 4, moderate hepatic impairment (Child Pugh B)), 1230 ng·h/mL. The Cmax was 3.56 ng/mL in the data set “clinical” (27 mg, Cmax Mean, 27 mg single dose, Cohort 1, mild hepatic impairment (Child Pugh A)); 14.6 ng/mL in “clinical” (27 mg, Cmax Mean, 27 mg single dose, Cohort 1, moderate hepatic impairment (Child Pugh B)); 28.3 ng/mL in the data set “clinical” (27 mg, Cmax Mean, 27 mg single dose, Cohort 1, severe hepatic impairment (Child Pugh C)); 19.9 ng/mL in the data set “clinical” (162 mg, mean Cmax, 162 mg single dose, Cohort 4, mild hepatic impairment (Child Pugh A)); 65.4 ng/mL in the data set “clinical” (162 mg, mean Cmax, 162 mg single dose, Cohort 4, moderate hepatic impairment (Child Pugh B)). The Half-life across cohorts entry in data set [1] is reported as “similar”.
